Data set [1] has as its system Candida albicans CCM 8320 (ATCC 24433). Description: Antifungal microdilution broth (EUCAST), CA. The data set is classed as cell-based. The note with it: Candida albicans. On the technique in general: Dilution methods test growth across graded concentrations, often in twofold steps.
For data set [2], the system named is Candida krusei CCM 8271 (ATCC 6258). Kind of data set: Antifungal microdilution broth (EUCAST), CK. The data set is classed as cell-based. The note with it: Pichia kudriavzevii.
Data set [3] relates to Candida parapsilosis CCM 8260 (ATCC 22019). Description: Antifungal microdilution broth (EUCAST), CP. Format: cell-based. The settings on record: Lodderomyces parapsilosis.
For data set [4], the system named is Candida tropicalis CCM 8264 (ATCC 750). Description: Antifungal microdilution broth (EUCAST), CT. The note with it: Candida tropicalis. The data set is classed as cell-based.
For data set [5], the system named is Aspergillus fumigatus ATCC 204305. Kind of data set: Antifungal microdilution broth (EUCAST), AF. Format: cell-based. The settings on record: Aspergillus fumigatus, ATCC204305.
In data set [6] the test system is Aspergillus flavus CCM 8363. Kind of data set: Antifungal microdilution broth (EUCAST), AFla. The note with it: Aspergillus flavus, CCM8363. Format: cell-based.
For data set [7], the system named is Lichtheimia corymbifera CCM 8077. Kind of data set: Antifungal microdilution broth (EUCAST), LC. The data set is classed as cell-based. The settings on record: Lichtheimia corymbifera, CCM8077.
For data set [8], the system named is Trichophyton interdigitale CCM 8377 (ATCC 9533). Description: Antifungal microdilution broth (EUCAST), TI. Format: cell-based. The note with it: Trichophyton interdigitale.
Data set [9] relates to Mycobacterium tuberculosis H37Ra ITM-M006710 (ATCC 9431). Kind of data set: Microplate Alamar Blue Assay (MABA), Mtb H37Ra. Format: cell-based. The note with it: Mycobacterium tuberculosis, 120 h, pH 6.6, MABA, Middlebrook 7H9 broth pH 6.6, resazurin after 120 h; read-out: Mtb H37Ra MIC. (Resazurin is reduced to fluorescent resorufin, in cell work by metabolically active cells.)

Data set [10] deals with Mycobacterium smegmatis DSM 43465 (ATCC 607). Description: Microplate Alamar Blue Assay (MABA), M. smegmatis. Format: cell-based. The note with it: Mycolicibacterium smegmatis, read-out: M. smegmatis MIC.
Data set [11] concerns M. aurum DSM 43999 (ATCC 23366). Kind of data set: Microplate Alamar Blue Assay (MABA), M. aurum. Format: cell-based. The note with it: Mycolicibacterium aurum, read-out: M. aurum MIC.
Data set [12] has as its system Staphylococcus aureus subsp. aureus CCM 4223 (ATCC 29213). Kind of data set: Antibacterial microdilution broth (EUCAST), SA. Format: cell-based. The settings on record: Staphylococcus aureus.
Data set [13] relates to Staphylococcus aureus subsp. aureus methicillin-resistant (MRSA) CCM 4750 (ATCC 43300). Description: Antibacterial microdilution broth (EUCAST), MRSA. Format: cell-based. The note with it: Staphylococcus aureus.
In data set [14] the test system is Staphylococcus epidermidis CCM 4418 (ATCC 12228). Description: Antibacterial microdilution broth (EUCAST), SE. The data set is classed as cell-based.
The subject of data set [15] is Enterococcus faecalis CCM 4224 (ATCC 29212). Kind of data set: Antibacterial microdilution broth (EUCAST), EF. The settings on record: Enterococcus faecalis. Format: cell-based.
Data set [16] concerns Escherichia coli CCM 3954 (ATCC 25922). Description: Antibacterial microdilution broth (EUCAST), EC. Format: cell-based. The note with it: Escherichia coli.
The subject of data set [17] is Acinetobacter baumannii DSM 30007 (ATCC 19606). Kind of data set: Antibacterial microdilution broth (EUCAST), ACI. The data set is classed as cell-based. The note with it: Acinetobacter baumannii.
Data set [18] has as its system Pseudomonas aeruginosa CCM 3955 (ATCC 27853). Description: Antibacterial microdilution broth (EUCAST), PA. Format: cell-based. The settings on record: Pseudomonas aeruginosa.
Data set [19] concerns HepG2 human hepatocellular carcinoma cells. Kind of data set: In vitro HepG2 cytotoxicity (CellTiter 96). The note with it: for IC50: Homo sapiens, HepG2, 24 h, read-out: HepG2 IC50, 24 h incubation, * limit = highest evaluated concentration (precipitation in medium), ** over the 1000 µM limit.
Data set [20] concerns Klebsiella pneumoniae CCM 4415 (ATCC 10031). Kind of data set: Antibacterial microdilution broth (EUCAST), KP. The note with it: for MIC: Klebsiella pneumoniae.
The mark [21] stands for this setting: internal quality control, 90% growth inhibition, 24 h, 530 nm, read-out: MIC, spectrophotometric detection*.
The mark [22] stands for this setting: internal quality control, no visible growth, 24 h, read-out: MIC, visual detection**.
Setting [23] is: internal quality control, 90% growth inhibition, 48 h (moulds), 530 nm, read-out: MIC, spectrophotometric detection*.
Where [24] appears, read: internal quality control, no visible growth, 48 h (moulds), read-out: MIC, visual detection**.
Where [25] appears, read: internal quality control, 50% growth inhibition, 24 h, 530 nm, read-out: MIC, spectrophotometric detection***.
Setting [26] is: internal quality control, 50% growth inhibition, 48 h (moulds), 530 nm, read-out: MIC, spectrophotometric detection***.
Setting [27] is: internal quality control, 95% growth inhibition, 24 h, 530 nm, read-out: MIC, spectrophotometric detection.
[28] abbreviates: internal quality control, no visible growth, 24 h, read-out: MIC, visual detection.

Values after ≈ are worked out from the molar mass of the structure shown. Where two headings read alike, the source gives them in different places.

Take `C[C@@H]1[C@H](O)[C@@H](C)/C=C/C=C/C=C/C=C/C=C/C=C/C=C/[C@H](O[C@@H]2O[C@H](C)[C@@H](O)[C@H](N)[C@@H]2O)C[C@@H]2O[C@](O)(C[C@@H](O)C[C@@H](O)[C@H](O)CC[C@@H](O)C[C@@H](O)CC(=O)O[C@H]1C)C[C@H](O)[C@H]2C(=O)O` [amphotericin B, reference compound]: the MIC in [1] (setting [21]), in data set [1] (setting [22]), in [2] (setting [21]), in [2] (setting [22]), in [3] (setting [21]) and in [3] (setting [22]) was 0.5 µg/mL throughout. Moreover, the MIC in data set [4] (setting [21]) stood at 1 µg/mL; in data set [4] (setting [22]), 1 µg/mL; in [5] (setting [23]), 1 µg/mL; in data set [5] (setting [24]), 1 µg/mL; in [6] (setting [23]), 4 µg/mL; in [6] (setting [24]), 4 µg/mL. Moreover, the MIC in [7] (setting [23]) is 0.125 µg/mL; in data set [7] (setting [24]), 0.125 µg/mL; in data set [8] (setting [23]) it was 1 µg/mL; in data set [8] (setting [24]), 1 µg/mL.

With `NC(=O)c1nccnc1NC(=O)c1cccc(Cl)c1` [Compound 14], the minimal inhibitory concentration (MIC) was ≥ 125 µg/mL in data set [9]; ≥ 125 µg/mL in data set [10] (48 h); ≥ 125 µg/mL in data set [11] (72 h); > 125 µM in data set [12] (read after 24 h, read-out: SA MIC); > 125 µM in data set [13] (read after 24 h, read-out: MRSA MIC); > 125 µM in data set [14] (read after 24 h, read-out: SE MIC). Also, the MIC is > 125 µM in data set [15] (read after 24 h, read-out: EF MIC); > 125 µM in data set [16] (read after 24 h, read-out: EC MIC); > 125 µM in data set [17] (read after 24 h, read-out: ACI MIC); > 125 µM in data set [18] (read after 24 h, read-out: PA MIC); > 125 µM in data set [1] (read after 24 h, read-out: CA MIC); > 125 µM in data set [2] (read after 24 h, read-out: CK MIC). For the same compound, the MIC in data set [3] (read after 24 h, read-out: CP MIC) is > 125 µM; in data set [4] (read after 24 h, read-out: CT MIC) it was > 125 µM; in [5] (read after 24 h, read-out: AF MIC), > 125 µM; in data set [6] (read after 24 h, read-out: AFla MIC), > 125 µM; in data set [7] (read after 24 h, read-out: LC MIC), > 125 µM; in [8] (72 h, read-out: TI MIC), > 125 µM. The “solubility in the testing medium (in words)” value in [19] (HepG2 cell culture medium) was “low solubility”. Further, in data set [19], the 50% inhibitory concentration (IC50) is > 25 µM. Also, the “KP MIC” value in data set [20] (read after 24 h) was > 125 µM.

For `C[C@@H](c1ncncc1F)[C@](O)(Cn1cncn1)c1ccc(F)cc1F` [voriconazole, reference compound], the MIC in data set [1] (setting [25]) was 0.03 µg/mL; in data set [1] (setting [22]), > 16 µg/mL; in [2] (setting [25]), 0.25 µg/mL; in data set [2] (setting [22]), > 16 µg/mL; in [3] (setting [25]), 0.03 µg/mL; in data set [3] (setting [22]), > 16 µg/mL. Also, the MIC in data set [4] (setting [25]) was 0.0625 µg/mL; in data set [4] (setting [22]), > 16 µg/mL; in data set [5] (setting [26]), 0.25 µg/mL; in data set [5] (setting [24]), 1 µg/mL; in data set [6] (setting [26]) it was 1 µg/mL; in [6] (setting [24]) it was > 16 µg/mL. Besides, the MIC in [7] (setting [26]), in [7] (setting [24]), in data set [8] (setting [26]) and in data set [8] (setting [24]) was > 16 µg/mL in each case.

With `CNC(C)C1CCC(N)C(OC2C(N)CC(N)C(OC3OCC(C)(O)C(NC)C3O)C2O)O1` (stereo not shown) [gentamicin, reference compound], the MIC in data set [12] (setting [27]) was 1 µg/mL; in data set [12] (setting [28]), 0.5 µg/mL; in data set [13] (setting [27]) it was > 8 µg/mL; in data set [13] (setting [28]), > 8 µg/mL; in data set [14] (setting [27]) it was 0.125 µg/mL; in data set [14] (setting [28]) it was 0.125 µg/mL. Further, the MIC in [15] (setting [27]) is > 8 µg/mL; in data set [15] (setting [28]) it was > 8 µg/mL; in data set [16] (setting [27]) it was 1 µg/mL; in data set [16] (setting [28]), 1 µg/mL; in [17] (setting [27]) it was 8 µg/mL; in [17] (setting [28]) it was 8 µg/mL. In addition, the MIC in data set [18] (setting [27]) is 0.5 µg/mL; in data set [18] (setting [28]), 0.5 µg/mL; in data set [20] (24 h, read-out: MIC, visual detection), 0.5 µg/mL (≈ 1.05 µM); in data set [20] (ATCC10031|CCM4415, 24 h, read-out: MIC, spectrophotometric detection), 0.5 µg/mL (≈ 1.05 µM).

On to `O=C(NC1Cc2ccccc2C1)c1nccnc1NC(=O)C1CCCCC1` [Compound 38, reference compound], for which the MIC was 62.5 µg/mL (≈ 171 µM) in data set [9]; ≥ 500 µg/mL in data set [10] (MABA, resazurin after 48 h); ≥ 500 µg/mL in data set [11] (MABA, resazurin after 72 h). For the same compound, the IC50 in data set [19] came to 19.6 µM.

Usually MIC stands for the lowest concentration that inhibits growth of the organism. A word on the IC50: it is the point on the concentration scale where inhibition reaches its midpoint.

Values taken from article PMC9687610, “Adenosine-Mimicking Derivatives of 3-Aminopyrazine-2-Carboxamide: Towards Inhibitors of Prolyl-tRNA Synthetase with Antimycobacterial Activity” (Biomolecules, 2022).
